The record followed here is patent publication EP0268267A2, “Guanidinomethylbenzoic acid derivatives, compositions containing the same, processes for preparing the same, and the use of the same in the manufacture of medicaments of therapeutic value” (NIPPON HYPOX LABORATORIES INCORPORATED, priority 1986, dated 1988).

Where a name gives a salt, the structure may show the parent alone. A value given as a limit tells only on which side of the number the result lay.

The subject of data set [1] is Stress Induced Ulcer. The experiment in a line: Effect on stress induced ulcer (water-immersion restraint stress, method of Takagi et al.). The following applies: oral, 100 mg/kg in 1% CMC, given 15 min before 18 h water immersion at 24°C; for Ulcer inhibition rate (%): relative to group without test compound; for Ulcer index (mm): total major axis of ulcers per animal, control 94.4 ± 25.1. The class given is in vivo, Male rats of Sprague Dawley (SD) strain. The procedure: Test Method 1 (Effect on Stress Induced Ulcer) The method of Takagi et al. (Jap. J. Pharmacol., 18, 9 ([…])) was followed. Male rats of Sprague Dawley (SD) strain each weighing from 180 to 200 g (8 weeks old and 6 to 8 rats in one group) were fasted for 24 hours, followed by oral administration of the above test compounds which had been suspended in 1% CMC aqueous solution. Fifteen minutes later, the animals were placed in a stress cage which was then immersed in a water bath at 24°C at the depth of the […] of the animals. After being immersed for 18 hours, the animals were sacrificed under etherization to remove the stomachs. Each of the stomachs was injected with 12 ml of 1% formaldehyde solution and then immersed in a 1% formaldehyde solution for 15 minutes. The stomach was incised along its greater curvature and examined for the gastric lesions under a stereomicroscope for the major axis (mm) of each ulcer that had developed on the gastric mucous membrane. The total major axis (mm) per animal was taken as the ulcer index of the animal. The ulcer inhibition rate was calculated from the following equation. The ED50 value was obtained from the dose-ulcer inhibition rate curve. Ulcer inhibition rate (%) = (1 - ? ) x 100 (wherein l is the ulcer index of a group without the test compounds administered, and m is the ulcer index of a group having such compounds administered).

In data set [2] the test system is Male mice of ddY strain. The experiment in a line: Acute toxicity - minimum lethal dose (MLD). In kind it is in vivo. The following applies: oral administration in 1% CMC, fasted overnight, observation over 7 days. From the text: Test Method 2 (Acute Toxicity - Minimum Lethal Dose (MLD))
Male mice of ddY strain each weighing from 20 to 22 g (4 weeks old and 5 mice in one group) were fasted overnight, followed by oral administration of the test compounds which had been suspended in 1% CMC aqueous solution. Observation was made over 7 days to determine the minimum lethal dose (MLD).

`Cc1ccc(NC(=O)c2ccc(CNC(=N)N)cc2)cc1.Cl` [A, N-(4ʹ-methylphenyl)-4-guanidinomethylbenzamide hydrochloride]: in data set [1], the “Ulcer inhibition rate (%)” value was determined as 90.3% and the “Ulcer index (mm)” value was 9.2 ± 3.4 mm.

Turning to `Cl.N=C(N)NCc1ccc(C(=O)Nc2ccc(Cl)cc2)cc1` [B, N-(4ʹ-chlorophenyl)-4-guanidinomethylbenzamide hydrochloride], in data set [1], the “Ulcer inhibition rate (%)” value came to 80.5% and the “Ulcer index (mm)” value is given as 18.4 ± 8.8 mm.

As for `CCOC(=O)c1ccccc1NC(=O)c1ccc(CNC(=N)N)cc1.Cl` [C, N-(2ʹ-ethoxycarbonylphenyl)-4-guanidinomethylbenzamide hydrochloride], in data set [1], the “Ulcer inhibition rate (%)” value was determined as 84.1% and the “Ulcer index (mm)” value was found to be 15.0 ± 14.7 mm.

For `COc1ccccc1NC(=O)c1ccc(CNC(=N)N)cc1.Cl` [Compound D, N-(2ʹ-methoxyphenyl)-4-guanidinomethylbenzamide hydrochloride], in data set [1], the “Ulcer inhibition rate (%)” value is 74.8% and the “Ulcer index (mm)” value was 23.8 ± 14.9 mm.

As to `N=C(N)NC[C@H]1CC[C@H](C(=O)Nc2ccccc2)CC1` [E, N-(phenyl)-trans-4-guanidinomethyl-cyclohexanecarboximide hydrochloride, reference compound], in data set [1], the “Ulcer inhibition rate (%)” value is reported as 35.0% and the “Ulcer index (mm)” value was found to be 61.4 ± 14.0 mm. The “minimum lethal dose (MLD)” value in data set [2] is reported as ≤ 1,000 mg/kg.
